The text below walks through data of publication PMC8904451, “Novel chalcone-derived pyrazoles as potential therapeutic agents for the treatment of non-small cell lung cancer” (Scientific Reports, 2022).

Structures are written as SMILES. Read-outs that look alike come from different tables or passages of the source.

One assay deals with H226 cells. Briefly: MTT cell viability assay, H226. In kind it is cell-based, human. The note with it: 72 h, MTT, read-out: IC50 ± SD, growth inhibition, H226. As to the method:
(§1) All the synthesized chalcone-derived pyrazoles were evaluated for their antiproliferative activity against three human non-small cell lung cancer cell lines: A-549, H226, and H460, and a nonmalignant human embryonic kidney cell line HEK293. Cisplatin and 5-fluorouracil (5-FU) were used as a reference. Cells were exposed to a range of PCH concentrations (0.5–100 µM) for 72 h and analyzed by 3-(4,5-dimethylthiazol-2-yl)-2,5-diphenyl-2H-tetrazolium bromide (MTT) assay. The results of the studies are expressed as the IC50 concentration that inhibits 50% growth of cells. […] Following treatment with PCH-1, the viability of all the tested cancer cell lines decreased in a concentration-dependent manner.
(§2) The cell viability assay was performed for A-549, H226, H460, and HEK293 cells after treatment with the test compounds by using the 3-(4,5-dimethylthiazol-2-yl)-2,5-diphenyltetrazolium bromide (MTT, Sigma-Aldrich) assay. Briefly, cells were seeded onto 96-well culture plates for attachment. After 24 h, triplicate wells were treated with DMSO (1%) and the agents. After 72 h of incubation at 37 °C in 5% CO2, the MTT solution (0.4 mg/ml) was added to each well. After 2–4 h of incubation, the medium was removed, and the formazan crystals were dissolved in 100 μl of DMSO. The absorption was measured at 450 nm with an ASYS UVM340 microplate reader (Biochrom Ltd.). The 50% inhibitory concentration (IC50) was defined as the concentration that reduced the absorbance of the DMSO-treated wells by 50% of the vehicle. The IC50 values were generated from GraphPad Prism 9 software by plotting the survival curve as a function of dose from 3 independent experiments.
(In general: Tetrazolium dyes change colour on reduction, which living cells bring about.)

The next assay has as its system HEK293 cells. Description: MTT cell viability assay, HEK293. In kind it is cell-based, human. The following applies: nonmalignant cells, read-out: IC50 ± SD, growth inhibition, HEK293. As to the method:
as §1, §2

The subject of assay [1] is A-549 cells. Description: MTT cell viability assay, A-549. In kind it is cell-based, human. The following applies: 72 h, MTT, read-out: IC50 ± SD, growth inhibition, A-549. As to the method:
All the synthesized chalcone-derived pyrazoles were evaluated for their antiproliferative activity against three human non-small cell lung cancer cell lines: A-549, H226, and H460, and a nonmalignant human embryonic kidney cell line HEK293. Cisplatin and 5-fluorouracil (5-FU) were used as a reference. […] The results of the studies are expressed as the IC50 concentration that inhibits 50% growth of cells. […] Following treatment with PCH-1, the viability of all the tested cancer cell lines decreased in a concentration-dependent manner.
as §2, with “After 72 h of incubation at 37 °C in 5% CO2, the MTT solution (0.4 mg/ml) was added to each well.” left out

The next assay concerns H460 cells. Description: MTT cell viability assay, H460. The assay is classed as cell-based, human. The note with it: 72 h, MTT, read-out: IC50 ± SD, growth inhibition, H460. The method, then:
as §1, §2

In assay [2] the test system is A-549 cells. Briefly: Intracellular ROS measurement (H2DCFDA, flow cytometry). The assay is classed as cell-based, human. The note with it: A-549, all the tested time points (3, 6, 24 h). The text has this: The generation of intracellular reactive oxygen species (ROS) causes an imbalance of cellular redox homeostasis, followed by damage of cellular components and cell death. Therefore, compounds with the ability to produce high levels of ROS and/or inhibit antioxidant processes are often used in anticancer therapies. In the present study, the effect of PCH-1 on ROS generation in A-549 cells was investigated by flow cytometry. As an indicator of ROS generation, the fluorescent probe 2ʹ,7ʹ-dichlorodihydrofluorescein diacetate (H2DCFDA) was used, which undergoes oxidation by ROS to form a highly fluorescent compound 2ʹ,7ʹ-dichlorofluorescein (DCF). As shown in Supplementary Fig. S6 in Supplementary Information, compound PCH-1 induced a massive amount of ROS in A-549 cells in a time-dependent manner. […] Moreover, the induction of ROS was equally high for PCH-1 and the reference compound H2O2 in all the tested time points.
For determination the ROS generation, cells were treated with IC90 of PCH-1, H2O2, or 1% DMSO for 3, 6, and 24 h. Next, a 1 µM CM-H2DCFDA (#C6827; Thermo-Fisher) probe was added to the cells in each plate 30 min before the end of the drug treatment. After incubation cells were collected by trypsinization, stained with 7-Aminoactinomycin D (7-AAD, Sigma-Aldrich), and measured. The analysis was performed with Guava EasyCyte 8 cell sorter (Merck Millipore) and FlowJo software v10. Each experiment was repeated independently three times.

A further assay has as its system tubulin. Briefly: HTS-tubulin polymerization assay. In kind it is biochemical. The following applies: 120-min kinetic reaction, absorbance 340 nm, vs vehicle. The method, then:
To further evaluate whether the tubulin–microtubule system was the target site of PCH-1, in vitro microtubule polymerization assays were performed using the microtubule protein with Paclitaxel and Vincristine as a reference. Paclitaxel and Vincristine are antimitotic drugs that have been commonly used in conventional chemotherapy for decades. In 1979, it was shown that Paclitaxel accelerates the initiation of tubulin fiber polymerization and stabilizes the formed tubulin fibers in vitro, even in the absence of GTP or MAP in the solution[30]. Vincristine, on the other hand, binds to tubulin and inhibits its polymerization.
The assay was performed according to the manufacturer’s instructions. Briefly, compounds were diluted in DMSO to a concentration of 2 mM and then in GTB buffer to a concentration of 50 µM. In the wells of a 96-well plate (UV transparent, half surface wells) previously heated to 37 °C, 10 µl of dilutions of the test compounds were placed in duplicate. The plate was incubated for 2 min at 37 °C, and 100 µl of freshly prepared tubulin solution (4 mg/ml) in GTB-GTP buffer was then added. The plate was immediately placed in a Tecan SPARK 10 M plate reader, and the reaction kinetics were measured with the following settings: absorbance reading: 340 nm, 37 °C, interval: 45 s, number of cycles: 160.

Usually IC50 stands for the concentration that gives 50% inhibition. In the case of `O=c1[nH]cc(F)c(=O)[nH]1` [5-FU, 5-fluorouracil, reference compound], the IC50 in the assay on H226 cells (Homo sapiens, NCI-H226) was 4.01 ± 0.76 µM; in the assay on HEK293 cells (Homo sapiens, HEK293, 72 h), 11.1 ± 1.53 µM; with A-549 cells [1] (Homo sapiens, A549), 8.12 ± 1.01 µM; in the assay with H460 cells (Homo sapiens, NCI-H460) it was 4.08 ± 0.43 µM.
Consider `N.N.[Cl][Pt][Cl]` [Cisplatin, reference compound], for which the IC50 in the assay on H226 cells stood at 17.5 ± 2.12 µM; in the assay on HEK293 cells (72 h) it was 28.4 ± 1.97 µM; in the assay with A-549 cells [1], 29.01 ± 0.12 µM; with H460 cells, 21.5 ± 1.87 µM.
With `COc1cc([C@@H]2c3cc4c(cc3[C@@H](O[C@@H]3O[C@@H]5CO[C@@H](C)O[C@H]5[C@H](O)[C@H]3O)[C@H]3COC(=O)[C@H]23)OCO4)cc(OC)c1O` [Etoposide, reference compound], the IC50 with H226 cells (Homo sapiens, NCI-H226) was found to be 1.03 ± 0.16 µM; in the assay with HEK293 cells (Homo sapiens, HEK293, 72 h), 1.91 ± 0.97 µM; with A-549 cells [1] (Homo sapiens, A549), 0.54 ± 0.21 µM; in the assay with H460 cells (Homo sapiens, NCI-H460) it was 0.05 ± 0.01 µM.
Consider `OO` [H2O2, reference compound], for which the “induction of ROS, reference compared with PCH-1” value in the assay with A-549 cells [2] is listed as “equally high”.
As to `COc1cc(C2=NN(C(C)=O)C(c3ccc4c(c3)OCO4)C2)cc(OC)c1OC` (centres unmarked) [PCH-2, 1-[5-(2H-1,3-benzodioxol-5-yl)-3-(3,4,5-trimethoxyphenyl)-4,5-dihydro-1H-pyrazol-1-yl]ethan-1-one], the IC50 in the assay on H226 cells (Homo sapiens, NCI-H226) is 40.5 ± 3.52 µM; with HEK293 cells (Homo sapiens, HEK293, 72 h), over 100 µM; with A-549 cells [1] (Homo sapiens, A549), over 100 µM; in the assay on H460 cells (Homo sapiens, NCI-H460) it was 43.8 ± 1.12 µM.
As for `CC(=O)N1N=C(c2ccc(C)cc2)CC1c1ccc2c(c1)OCO2` (centres unmarked) [PCH-3, 1-[5-(2H-1,3-benzodioxol-5-yl)-3-(4-methylphenyl)-4,5-dihydro-1H-pyrazol-1-yl]ethan-1-one], the IC50 was 86.7 ± 0.92 µM in the assay on H226 cells (Homo sapiens, NCI-H226); over 100 µM in the assay on HEK293 cells (Homo sapiens, HEK293, 72 h); over 100 µM in the assay on A-549 cells [1] (Homo sapiens, A549); 24.5 ± 1.74 µM in the assay with H460 cells (Homo sapiens, NCI-H460).
On to `COc1ccccc1C1=NN(C(C)=O)C(c2ccc3c(c2)OCO3)C1` (centres unmarked) [PCH-4, 1-[5-(2H-1,3-benzodioxol-5-yl)-3-(2-methoxyphenyl)-4,5-dihydro-1H-pyrazol-1-yl]ethan-1-one], for which the IC50 with H226 cells (Homo sapiens, NCI-H226) was 86.7 ± 4.7 µM; in the assay with HEK293 cells (Homo sapiens, HEK293, 72 h) it was over 100 µM; in the assay with A-549 cells [1] (Homo sapiens, A549), over 100 µM; in the assay with H460 cells (Homo sapiens, NCI-H460), 63.4 ± 3.34 µM.
For `CC(=O)N1N=C(c2ccc3c(c2)OCO3)CC1c1ccc2c(c1)OCO2` (centres unmarked) [PCH-5, 1-[3,5-bis(2H-1,3-benzodioxol-5-yl)-4,5-dihydro-1H-pyrazol-1-yl]ethan-1-one], the concentration for half-maximal inhibition (IC50) turned out to be 58 ± 2.56 µM in the assay on H226 cells (Homo sapiens, NCI-H226); 47 ± 3.18 µM in the assay with HEK293 cells (Homo sapiens, HEK293, 72 h); 60.9 ± 4.3 µM in the assay with A-549 cells [1] (Homo sapiens, A549); 38.8 ± 1.77 µM in the assay on H460 cells (Homo sapiens, NCI-H460).
`CC(=O)N1N=C(c2ccc(OC(F)(F)F)cc2)CC1c1ccc2c(c1)OCO2` (centres unmarked) [PCH-6, 1-{5-(2H-1,3-benzodioxol-5-yl)-3-[4-(trifluoromethoxy)phenyl]-4,5-dihydro-1H-pyrazol-1-yl}ethan-1-one]: the IC50 in the assay with H226 cells (Homo sapiens, NCI-H226) turned out to be 24.4 ± 2.13 µM; in the assay with HEK293 cells (Homo sapiens, HEK293, 72 h), 42.9 ± 1.23 µM; in the assay with A-549 cells [1] (Homo sapiens, A549), 21.5 ± 4.26 µM; with H460 cells (Homo sapiens, NCI-H460), 18.1 ± 2.13 µM.
`COc1ccc(C2=NN(C(C)=O)C(c3ccc4c(c3)CCO4)C2)cc1` (centres unmarked) [PCH-7, 1-[5-(2,3-dihydro-1-benzofuran-5-yl)-3-(4-methoxyphenyl)-4,5-dihydro-1H-pyrazol-1-yl]ethan-1-one]: the IC50 was 41.5 ± 1.12 µM in the assay with H226 cells (Homo sapiens, NCI-H226); over 100 µM in the assay with HEK293 cells (Homo sapiens, HEK293, 72 h); over 100 µM with A-549 cells [1] (Homo sapiens, A549); 30.2 ± 2.14 µM with H460 cells (Homo sapiens, NCI-H460).
Regarding `COc1ccc(C2=NN(C(C)=O)C(c3cc4c(cc3OC)OCO4)C2)cc1` (centres unmarked) [PCH-8, 1-[5-(6-methoxy-2H-1,3-benzodioxol-5-yl)-3-(4-methoxyphenyl)-4,5-dihydro-1H-pyrazol-1-yl]ethan-1-one], the concentration for half-maximal inhibition (IC50) is 61.1 ± 3.12 µM in the assay on H226 cells (Homo sapiens, NCI-H226); over 100 µM in the assay with HEK293 cells (Homo sapiens, HEK293, 72 h); over 100 µM with A-549 cells [1] (Homo sapiens, A549); 30.2 ± 2.14 µM in the assay on H460 cells (Homo sapiens, NCI-H460).
For the compound `COc1cc2c(cc1C1=NN(C(C)=O)C(c3ccc(O)cc3)C1)SCO2` (centres unmarked) [PCH-9, 1-[5-(4-hydroxyphenyl)-3-(6-methoxy-2H-1,3-benzoxathiol-5-yl)-4,5-dihydro-1H-pyrazol-1-yl]ethan-1-one], the IC50 with H226 cells (Homo sapiens, NCI-H226) amounted to 38.4 ± 3.53 µM; in the assay with HEK293 cells (Homo sapiens, HEK293, 72 h) it was 34.4 ± 2.01 µM; in the assay with A-549 cells [1] (Homo sapiens, A549), 79.5 ± 4.97 µM; in the assay with H460 cells (Homo sapiens, NCI-H460), 43.8 ± 3.97 µM.
Regarding `CC(=O)O[C@H]1C(=O)[C@@]2(C)[C@H]([C@H](OC(=O)c3ccccc3)[C@]3(O)C[C@H](OC(=O)[C@H](O)[C@@H](NC(=O)c4ccccc4)c4ccccc4)C(C)=C1C3(C)C)[C@]1(OC(C)=O)CO[C@@H]1C[C@@H]2O` [Paclitaxel], the “effect on tubulin polymerization kinetics” value with tubulin is “accelerated the nucleation phase and increased the total mass of tubulin polymer”.
On the same count and under the same terms, the result for `CC[C@]1(O)C[C@H]2CN(CCc3c([nH]c4ccccc34)[C@@](C(=O)OC)(c3cc4c(cc3OC)N(C=O)[C@H]3[C@@](O)(C(=O)OC)[C@H](OC(C)=O)[C@]5(CC)C=CCN6CC[C@]43[C@@H]65)C2)C1` [Vincristine, vincristine] reads “extended the nucleation time and reduced the total mass of tubulin polymer”.
